Measurements as given in patent US20250129076A1, “FUSED TETRACYCLIC COMPOUNDS, COMPOSITIONS AND DIAGNOSTIC APPLICATIONS THEREOF” (priority 2021, published 2025).
Entries after “also recorded” stand apart in the source; their conditions may differ.

Columns and labels:
DNA [1] = experiment: Emission maxima with DNA; format: binding; settings: Table 6
Method: (§1) The absorbance peaks for each of the compounds were tabulated and further used as excitation wavelength for fluorescence scans. Initially an absorbance scan was performed to identify the excitation maxima after which the excitation wavelength was used to obtain the emission maxima/fluorescence plots. Once the excitation and emission maxima were known, different concentrations of the compounds were used starting from 10 ng to saturating concentrations to obtain fluorescent spectra. Similarly, a fixed concentration of the compound was used to which an increasing concentration of DNA/RNA was added until saturation to find the nucleic acid binding properties of the dyes and compounds. In addition, a fixed concentration of DNA/RNA was used, to which increasing concentrations of the compounds were added until saturation. The data obtained was plotted and used for calculating binding constants and determining the binding ability of the dyes and compounds.
as §1, with “1 mg/ml stock solutions of all compounds the were prepared in DMSO. Few insoluble compounds were then dissolved in nonpolar solvent. 10 ul (1 mg/ml) of each of the compounds were used to do an absorbance scan in the TECAN nano reader and the graphs were plotted. The absorbance” for “The absorbance”, “obtain the fluorescence plots. Once” for “obtain the emission maxima/fluorescence plots. Once”, “of the said compound was” for “of the compound was”

[2] = Absorbance and fluorescence scans (excitation and emission maxima); format: physicochemical; design: unit not given here; settings: compound alone; Table 6
Method: 1 mg/ml stock solutions of all the compounds were prepared in DMSO. Few insoluble compounds were then dissolved in non-polar solvent. 10 ul (1 mg/ml) of each of the compounds were used to do an absorbance scan in the TECAN nano reader and the graphs were plotted.
The absorbance peaks for each of the compounds were tabulated and further used as excitation wavelength for fluorescence scans. Initially an absorbance scan was performed to identify the excitation maxima after which the excitation wavelength was used to obtain the emission maxima/fluorescence plots. Once the excitation and emission maxima were known, different concentrations of the compounds were used starting from 10 ng to saturating concentrations to obtain fluorescent spectra. Similarly, a fixed concentration of the compound was used to which an increasing concentration of DNA/RNA was added until saturation to find the nucleic acid binding properties of the dyes and compounds. In addition, a fixed concentration of DNA/RNA was used, to which increasing concentrations of the compounds were added until saturation. The data obtained was plotted and used for calculating binding constants and determining the binding ability of the dyes and compounds. […]
as §1, with “1 mg/ml stock solutions of all compounds the were prepared in DMSO. Few insoluble compounds were then dissolved in nonpolar solvent. 10 ul (1 mg/ml) of each of the compounds were used to do an absorbance scan in the TECAN nano reader and the graphs were plotted. The absorbance” for “The absorbance”, “obtain the fluorescence plots. Once” for “obtain the emission maxima/fluorescence plots. Once”, “of the said compound was” for “of the compound was”

DNA [3] = experiment: Detection of DNA binding by the compounds (Table 2); settings: yes = binding detected, empty cells not reported
Calf Thymus DNA (CT-DNA) = experiment: Increase in fluorescence upon binding with Calf Thymus DNA; settings: figure legends FIG. 12-22
Method: 1 mg/ml stock solutions of all the compounds were prepared in DMSO. Few insoluble compounds were then dissolved in non-polar solvent. 10 ul (1 mg/ml) of each of the compounds were used to do an absorbance scan in the TECAN nano reader and the graphs were plotted. The absorbance peaks for each of the compounds were tabulated and further used as excitation wavelength for fluorescence scans. Initially an absorbance scan was performed to identify the excitation maxima after which the excitation wavelength was used to obtain the emission maxima/fluorescence plots. Once the excitation and emission maxima were known, different concentrations of the compounds were used starting from 10 ng to saturating concentrations to obtain fluorescent spectra. Similarly, a fixed concentration of the compound was used to which an increasing concentration of DNA/RNA was added until saturation to find the nucleic acid binding properties of the dyes and compounds. In addition, a fixed concentration of DNA/RNA was used, to which increasing concentrations of the compounds were added until saturation. The data obtained was plotted and used for calculating binding constants and determining the binding ability of the dyes and compounds. 1 mg/ml stock solutions of all compounds the were prepared in DMSO. Few insoluble compounds were then dissolved in nonpolar solvent. 10 ul (1 mg/ml) of each of the compounds were used to do an absorbance scan in the TECAN nano reader and the graphs were plotted. The absorbance peaks for each of the compounds were tabulated and further used as excitation wavelength for fluorescence scans. Initially an absorbance scan was performed to identify the excitation maxima after which the excitation wavelength was used to obtain the fluorescence plots. Once the excitation and emission maxima were known, different concentrations of the compounds were used starting from 10 ng to saturating concentrations to obtain fluorescent spectra. Similarly, a fixed concentration of the said compound was used to which an increasing concentration of DNA/RNA was added until saturation to find the nucleic acid binding properties of the dyes and compounds. In addition, a fixed concentration of DNA/RNA was used, to which increasing concentrations of the compounds were added until saturation. The data obtained was plotted and used for calculating binding constants and determining the binding ability of the dyes and compounds.

RNA = experiment: Detection of RNA binding by the compounds (Table 2); settings: yes = binding detected, empty cells not reported
Protein = experiment: Detection of protein binding by the compounds (Table 2); settings: yes = binding detected, empty cells not reported
Text: Absorbance Spectra and Fluorescence Spectra conditions for compound+DNA/RNA/Protein Methods of experimentation: An Excitation Max: 488 nm, Emission Max: 560 nm, Band width: 488-600 nm on Alexa Fluor 488 channel were used for flow cytometry and microscopic determinations TECAN spectrofluorimeter.

[4] = Comparison with commonly available DNA staining agents: photostability (Table 3); format: physicochemical
[5] = Comparison with commonly available DNA staining agents: toxicity (Table 3); settings: Hoescht and DAPI cells wrap: 'Potentially carcinogenic & Mutagenic'
double-stranded DNA = settings: when bound; cited from earlier work
RNA of E. coli BL21 = experiment: Working concentration of compound (25) for RNA detection, agarose gel electrophoresis; format: binding; settings: 10-50 ng RNA with 5, 10, 20, 40 ng of compound 25; 1% agarose gel, TBE buffer
Method: To check the working concentration of compound (25) using different concentrations of RNA, RNA of E. coli BL21 was isolated and diluted to 10 ng/μl from the stock. Using a TBE buffer 1% agarose gel was casted and gel electrophoresis is performed using 10-50 ng concentration of RNA with 5, 10, 20, 40 ng of compound 25.

SMILES | Emission maxim with DNA (DNA [1]) [nm] | Emission maxima [2] | Excitation Maxima [2] | DNA (binding detected) (DNA [3]) | increase in fluorescence upon binding with Calf Thymus DNA (CT-DNA) (Calf Thymus DNA (CT-DNA)) [fold] | RNA (binding detected) (RNA) | further results
O=C1C=C2C(=C[C@@]3(O)COc4cc(O)ccc4[C@@H]23)C=C1O [Compound 019] | 570 | 570 | 490 | yes | > 1000 |  | 
COc1cc(/C=C2\COc3cc(O)ccc3C2=O)ccc1O [Compound 007] |  |  |  | yes | 25 | Yes | 
Oc1cc2c(cc1O)[C@@H]1c3cc(-c4ccc(F)cc4)c(O)cc3OC[C@]1(O)C2 [Compound 037] |  |  |  | yes | > 1000 | yes | Protein (binding detected) (Protein): yes
Oc1ccc2c(c1)OC[C@](O)(Cc1ccc(O)c(O)c1)[C@H]2O [Compound 017] |  |  |  | yes | > 1000 | yes | 
O=C1/C(=C/c2ccc(O)c(O)c2)COc2cc(O)ccc21 [Compound 015] | 610 | 570 | 490 | yes |  | yes | 
COc1cc2c(cc1OC)[C@@H]1c3cc(-c4ccccc4)c(OC)cc3N(S(=O)(=O)c3ccc(C)cc3)C[C@]1(O)C2 [Compound 038] |  |  |  |  | 2 | yes | 
Cc1ccc(S(=O)(=O)N2C[C@]3(O)Cc4cc(O)c(O)cc4[C@@H]3c3cc(-c4ccc(F)cc4)c(O)cc32)cc1 [Compound 039] |  |  |  | yes |  |  | 
Cc1cc2c(cc1O)OC[C@]1(O)Cc3cc(O)c(O)cc3[C@H]21 [Compound 032] | 570 | 570 | 490 |  |  |  | 
N=C(N)c1ccc(-c2cc3ccc(C(=N)N)cc3[nH]2)cc1 [DAPI] |  |  |  |  |  |  | Photostability [4]: 10 min; Toxicity [5]: carcinogenic; also recorded: & Mutagenic
COc1ccc2c(c1)SCC1=C2c2cc(OC)c(OC)cc2C1 [Compound 021] |  |  |  |  |  | yes | 
Cc1ccc2c(c1)OC/C(=C\c1ccc(C)c(C)c1)C2=O [Compound 016] | 610 | 610 | 490 | yes | 5 |  | 
CCCN(CCCN(C)C)c1cc(/C=C2/Sc3ccccc3N2C)c2ccccc2[n+]1-c1ccccc1 [SYBR Green] |  |  |  |  |  |  | absorbs at a wavelength (double-stranded DNA): around 497 nm; emits fluorescence (double-stranded DNA): around 530 nm
COc1ccc2c(c1)OC/C(=C\c1ccc(OC)c(OC)c1)C2=O [Compound 009] |  |  |  |  | 15 | yes | 
Oc1ccc2c(c1)OC[C@]1(O)Cc3cc(O)c(O)cc3[C@H]21 [Compound 033] |  |  |  | yes | > 1000 | yes | 
CN1C/C(=C\c2ccc(O)c(O)c2)C(=O)c2ccc(O)cc21 [Compound 025] |  |  |  |  | > 1000 | yes | RNA bands on gel (RNA of E. coli BL21): bands are in all the wells
Cc1ccc(C)cc1 [Compound 026] | 590 | 580 | 490 | yes |  | yes | 
CCc1cc(O)ccc1C(=O)/C=C/C1=CC(OC)C(O)C=C1 (centres unmarked) [Compound 031] | 610 | 610 | 490 |  |  | yes | 
Oc1cc2c(cc1O)[C@@H]1c3cc(-c4ccccc4)c(O)cc3OC[C@]1(O)C2 [Compound 035] | 580 | 580 | 490 |  | > 1000 | yes | Protein (binding detected) (Protein): yes
